Read-outs that look alike come from different tables or passages of the source.
Tests used:
urokinase (uPA) = urokinase (uPA) (Homo sapiens, UniProt P00749); assay: urokinase inhibition testing in vitro, chromogenic substrate S-2444, optical density at 405 nm; assay type: biochemical; conditions: read-out: Experiment, uPA inhibition activity (IC50)
Experimental: After selection of the most promising candidates for new urokinase inhibitors, we tested their inhibition activities in vitro. The experiments were carried out on the system with the urokinase specimen, the tested ligand, and the special substrate—a synthetic Pyro-Glu-Gly-Arg-pNA peptide (S-2444). Urokinase decomposes the substrate with production of the chromogenic product. When the inhibitor binds to the urokinase active site, this production is slowed down. The higher the inhibition activity of the ligand, the slower the working of urokinase and the slower the accumulation of chromogenic product. Thus, the inhibitory activity can be measured by the rate of optical density change at the 405 nm wavelength. […] Error of the method for IC50 measurement in micromole range is about […].
Experimental tests were performed as indicated in paragraph 3.5 of “Methods.” Urokinase proteolytic activity in the presence of inhibitor (and also in absence of inhibitor, labeled “control” in Figure 4) was determined by releasing the paranitroanilide by means of measuring of absorption with a wave length of 405 nm each minute at 30°C. Figure 4 is a diagram of relationship between optical density and time. The angle of curve describes the reaction rate: the lower it is (compared with “control”, which corresponds to urokinase without inhibitors), the better inhibitor works.

uPA = molecular target: uPA; parameters: method as in PMID 8495419; conditions: cited from earlier work
human uPA = molecular target: human uPA; parameters: method as in PMID 15582418, PMID 12113833, PMID 11755349, PMID 15149680, PMID 17447747; conditions: read-out: K i against human uPA; cited from earlier work
[1] = parameters: method as in PMID 19200050; conditions: cited from earlier work

Row | SMILES | IC50 (urokinase (uPA); synthesized compounds, Table 8) [µM] | further results
1 | Cc1[nH]c2ccc(Oc3ccccc3)cc2c1CCN [TRY-0074] | – | IC50 (urokinase (uPA); ordered compounds, Table 7): 260 µM
2 | COc1ccc2nc(N)[nH]c2c1 [U019R] | 500 | –
3 | Nc1ncc(-c2ccc(F)cc2)[nH]1 [AIM-0027] | – | IC50 (urokinase (uPA); ordered compounds, Table S2): 500 µM
4 | N=C(N)c1cc2c(I)cccc2s1 [B428] | – | Ki (uPA): 0.53 µM
5 | CC(=O)Nc1ccc2[nH]c(N)nc2c1 [U017R] | 200 | –
6 | CCOC(=O)N1CCN(C(=O)C(Cc2cccc(C(=N)N)c2)NS(=O)(=O)c2c(C(C)C)cc(C(C)C)cc2C(C)C)CC1 (centres unmarked) [WX-UK1] | – | Ki (human uPA): 0.6 µM; oral absorption [1]: not absorbed orally
7 | Nc1cc2ccccc2cn1 [U003P] | > 500 | –
8 | Nc1nc2cc([N+](=O)[O-])ccc2[nH]1 [U014aR] | > 500 | –
9 | N=C(N)Sc1ccc(Br)cn1 [U007R] | > 500 | –
10 | Nc1nc2cc(F)ccc2[nH]1 [U020R] | 500 | –
11 | NC1=NCC(COc2c(Cl)cccc2Cl)O1 (centres unmarked) [U012T] | > 500 | –
12 | NC1=NCC(COc2ccccc2)O1 (centres unmarked) [U006R] | > 500 | –

Now from value to compound, other results behind:

Row | IC50 (urokinase (uPA); synthesized compounds, Table 8) [µM] | SMILES | further results
13 | > 500 | N=C(N)Sc1ccccc1 [U002R] | –
14 | 500 | Nc1nc(-c2ccccc2)c[nH]1 [U005r] | –
15 | 4 to 20 | N=C(N)Nc1nsc2ccc(Br)cc12 [U026R, (5-bromo-1,2-benzisothiazol-3-yl) guanidine] | –
16 | > 500 | Cc1cccc(C)c1OCC1CN=C(N)O1 (centres unmarked) [U013T] | –
17 | 200 | Nc1ccc2[nH]c(N)nc2c1 [U014R] | –
18 | 33 | N=C(N)Nc1nsc2ccccc12 [U024R, 1,2-benzisothiazol-3-yl-guanidine] | –
19 | 500 | N=C(N)Nc1n[nH]c2ccccc12 [U021R] | –
20 | > 500 | N=C(N)Sc1ccccn1 [U001R] | –
21 | > 500 | Nc1nc2cc(NS(=O)(=O)c3ccccc3)ccc2[nH]1 [U015R] | –
22 | > 500 | Nc1nc(-c2ccc3ccccc3c2)cs1 [U009T] | –
